Source: patent US20240376056A1, “PHENYL ACETAMIDE BASED IL-17A MODULATORS AND USES THEREOF” (DiCE Alpha, Inc., priority 2021, published 2024)

These molecules were tested against T1, IL-17A/A (Homo sapiens, UniProt Q16552) (assay: HEK-Blue IL-17A/A inhibition assay (SEAP reporter)). Conditions: HEK-Blue cells (HEK 293 expressing IL-17RA, IL-17RC, Act1); IL-17A/A stimulation; 20 hours; SEAP read at A630; 4-parameter fit.
T1 construct: purchased Genscript Z03228
T1 sequence (Q16552 24-155): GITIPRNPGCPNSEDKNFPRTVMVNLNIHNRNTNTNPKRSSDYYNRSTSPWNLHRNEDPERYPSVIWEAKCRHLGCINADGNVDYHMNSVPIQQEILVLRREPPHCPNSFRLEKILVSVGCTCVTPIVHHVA
Assay type: cell-based
Procedure, shortened: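 HEK 293 cells engineered with IL-17RA, IL-17RC and Act1 (NFκB-driven SEAP) given titrated compound (top final 10, 1 or 0.3 uM; 0.1% DMSO) just before IL-17A/A, then incubated 20 h. SEAP in media developed with Quanti-Blue, read at A630; IC50 by 4-parameter nonlinear fit.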

| SMILES | IC50 [nM] |
| --- | --- |
| CC(C)n1nccc1C(=O)N[C@H](C(=O)Nc1ccc([C@H](C)C(=O)N2CC(F)(CO)C2)cc1F)C(C1CC1)C1CC1 [Compound 33, N-((S)-1,1-dicyclopropyl-3-((2-fluoro-4-((S)-1-(3-fluoro-3-(hydroxymethyl)azetidin-1-yl)-1-oxopropan-2-yl)phenyl)amino)-3-oxopropan-2-yl)-1-isopropyl-1H-pyrazole-5-carboxamide] | > 1000 |
| CC(C)n1nccc1C(=O)N[C@H](C(=O)Nc1ccc([C@H](C)C(=O)NCCF)cc1F)C(C1CC1)C1CC1 [Compound 34, N-((S)-1,1-dicyclopropyl-3-((2-fluoro-4-((S)-1-((2-fluoroethyl)amino)-1-oxopropan-2-yl)phenyl)amino)-3-oxopropan-2-yl)-1-isopropyl-1H-pyrazole-5-carboxamide] | 100 to 1000 |
| CC(C)n1nccc1C(=O)N[C@H](C(=O)Nc1ccc([C@H](C)C(=O)NCC(F)(F)CNC(=O)OC(C)(C)C)cc1F)C(C1CC1)C1CC1 [Compound 35, tert-butyl (3-((S)-2-(4-((S)-3,3-dicyclopropyl-2-(1-isopropyl-1H-pyrazole-5-carboxamido)propanamido)-3-fluorophenyl)propanamido)-2,2-difluoropropyl)carbamate] | > 1000 |
| CC(C)n1nccc1C(=O)N[C@H](C(=O)Nc1ccc([C@H](C)C(=O)NCc2ccccc2C(F)(F)F)cc1F)C(C1CC1)C1CC1 [Compound 36, N-((S)-1.1-dicyclopropyl-3-((2-fluoro-4-((S)-1-oxo-1-((2-(trifluoromethyl)benzyl)amino)propan-2-yl)phenyl)amino)-3-oxopropan-2-yl)-1-isopropyl-1H-pyrazole-5-carboxamide] | > 1000 |
| CC(C)n1nccc1C(=O)N[C@H](C(=O)Nc1ccc([C@H](C)C(=O)N2CC3(C2)CC(F)(F)C3)cc1F)C(C1CC1)C1CC1 [Compound 37] | > 1000 |
| CC(C)n1nccc1C(=O)N[C@H](C(=O)Nc1ccc([C@H](C)C(=O)N2C[C@H](F)[C@@H](F)C2)cc1F)C(C1CC1)C1CC1 [Compound 38, N-((S)-1,1-dicyclopropyl-3-((4-((S)-1-((3S,4S)-3,4-difluoropyrrolidin-1-yl)-1-oxopropan-2-yl)-2-fluorophenyl)amino)-3-oxopropan-2-yl)-1-isopropyl-1H-pyrazole-5-carboxamide] | 100 to 1000 |
| CC(C)n1nccc1C(=O)N[C@H](C(=O)Nc1ccc([C@H](C)C(=O)N2CCN(C(=O)OC(C)(C)C)CC2C(F)(F)F)cc1F)C(C1CC1)C1CC1 (stereo partly drawn) [Compound 39, tert-butyl 4-((S)-2-(4-((S)-3,3-dicyclopropyl-2-(1-isopropyl-1H-pyrazole-5-carboxamido)propanamido)-3-fluorophenyl)propanoyl)-3-(trifluoromethyl)piperazine-1-carboxylate] | > 1000 |
| CC(C)n1nccc1C(=O)N[C@H](C(=O)Nc1ccc([C@H](C)C(=O)N2C[C@@H](F)[C@@H](F)C2)cc1F)C(C1CC1)C1CC1 [Compound 40, N-((S)-1,1-dicyclopropyl-3-((4-((S)-1-((3S,4R)-3,4-difluoropyrrolidin-1-yl)-1-oxopropan-2-yl)-2-fluorophenyl)amino)-3-oxopropan-2-yl)-1-isopropyl-1H-pyrazole-5-carboxamide] | 100 to 1000 |
| CC(C)n1nccc1C(=O)N[C@H](C(=O)Nc1ccc([C@H](C)C(=O)NC(c2ccccn2)C(F)(F)F)cc1F)C(C1CC1)C1CC1 (stereo partly drawn) [Compound 41, N-((2S)-1,1-dicyclopropyl-3-((2-fluoro-4-((2S)-1-oxo-1-((2,2,2-trifluoro-1-(pyridin-2-yl)ethyl)amino)propan-2-yl)phenyl)amino)-3-oxopropan-2-yl)-1-isopropyl-1 H-pyrazole-5-carboxamide] | 100 to 1000 |
| CC(C)n1nccc1C(=O)N[C@H](C(=O)Nc1ccc([C@H](C)C(=O)N(CC(F)(F)F)CC(F)(F)F)cc1F)C(C1CC1)C1CC1 [Compound 42, N-((S)-1-((4-((S)-1-(bis(2,2,2-trifluoroethyl)amino)-1-oxopropan-2-yl)-2-fluorophenyl)amino)-3,3-dicyclopropyl-1-oxopropan-2-yl)-1-isopropyl-1H-pyrazole-5-carboxamide] | 100 to 1000 |
